Results published in patent US7884093B2, “Progesterone for the treatment or prevention of spontaneous preterm birth” (priority 2007, dated 2011).

What was measured:
[1] = test system: pregnant women with a history of spontaneous preterm birth; assay: Randomized, double-blind, placebo-controlled trial of vaginal progesterone gel on preterm birth; format: in vivo, human
Experimental: In light of the state of the art, a study was conducted to examine the effects of progesterone on preterm labor and premature birth in women with a history of a previous preterm birth. […] The selection, categorization, and breakdown of the two groups is outlined in the flow chart of FIG. 2. The study was a prospective, randomized, placebo-controlled, double-blind, multicenter trial in pregnant subjects at high risk of spontaneous preterm delivery. The study participants were screened from 16 0/7 and 22 6/7 weeks gestational age. Subjects were randomized to drug or placebo from 18 0/7 to 22 6/7 weeks.
(§1) Subjects meeting the study criteria were enrolled by the investigator between 18 0/7 and 22 6/7 weeks and received identically packaged, sequentially numbered progesterone or placebo vaginal gel in a 1:1 ratio. A SAS (SAS Institute Inc., Cary, N.C., USA) procedure for variable block size was used to generate a randomization schedule stratified by study site and by inclusion criteria (prior preterm birth or short cervix). Quintiles, Inc. (Kansas City, Mo., USA) generated the randomization sequences, which were confidentially provided to the packaging company. Treatment allocation was concealed by an identical packaging and labelling process performed by Aptuit, Inc. (Mount Laurel, N.J., USA). The study patients, obstetric care providers, study investigators, study coordinators, and study monitors were blind to the exposure status (progesterone or placebo) of all study patients.
Subjects were randomized in a 1:1 ratio to receive PROCHIEVE® 8% (vaginally administered 90 mg natural progesterone gel) or placebo vaginal gel. All women performed self-dosing on a daily basis of their assigned study medication, either PROCHEIVE® (progesterone) or placebo.
Statistical analysis was based on the intent-to-treat principle.
Patients who were currently or previously enrolled in another investigational study within 1 month prior to screening for the present study were not included in the trial. Patients were also restricted from participation in the trial if the present pregnancy was complicated by a major fetal anomaly or a known chromosome disorder, or was a multifetal gestation. Patients with a cervical cerclage in place, or those intending to have one placed during the current pregnancy, were excluded from study participation, as were those with signs of preterm rupture of membranes, vaginal bleeding, amnionitis, or preterm labor at enrollment.
The study drug was packaged and labelled according to the 1:1 randomization scheme provided by Quintiles, Inc (Kansas City, Mo., USA). A SAS (SAS Institute Inc., Cary, N.C., USA) procedure for variable block size was used to generate the randomization schedule stratified by study site. […] The study drug (Prochieve® 8% progesterone gel) and placebo (Replens®) were provided by Columbia Laboratories, Inc. (Livingston, N.J., USA). Patients were instructed to self-administer the full applicator of vaginal gel at approximately the same time daily, preferably in the morning. Patients received a 2-week supply of the allocated treatment at the time of randomization, and at every 2-week study visit thereafter. All drug supplies were to be brought in at each visit at all study centers, and compliance with the study medication was determined from returned empty wrappers and unused wrappers. Percent compliance was assessed as total treatment duration compliance: (total applicators used/total dosing days)×100. Total dosing days was defined as the interval from enrollment to either the date of preterm premature rupture of membranes, the date of preterm birth without accompanying ruptured membranes, or 37 0/7 weeks' gestation.
The occurrence of adverse events was queried at each 2-week study visit at all centers by asking if the patient had any complaints or problems. Subjects received an extra 1-week drug supply when treatment was initiated in case they could not make the next regularly scheduled appointment.

[2] = test system: pregnant women with a short cervix; assay: Randomized trial, analysis of women with a shortened cervix in the midtrimester; format: in vivo, human
Experimental: The study further included women without a history of preterm birth and having a short cervix at the time of enrollment. […] The lowest quartile (≦3.2 cm) was combined with the short cervix only patients and subdivided sequentially and the primary and secondary outcomes for women with cervical lengths of ≦3.0 cm and <2.8 cm at the time of enrollment were analyzed. There were an insufficient number of patients with even shorter cervical lengths available for further analysis. For the purposes of the study, the criteria for short cervix was set at less than 2.8 cm.
The study included women with a documented history of spontaneous preterm birth (<35 weeks) in a singleton pregnancy in the immediate preceding parity regardless of cervical length, and women without a history of preterm birth but with midtrimester cervical shortening (≦2.5 cm) in the current pregnancy were offered enrollment in the study at 18 0/7-22 6/7 weeks of gestation. Recruitment began in April 2004 and the last patient delivered Jan. 8, 2007.
Therefore, women were excluded if any of the following conditions were present: age <18 or >45 years; multifetal gestation; history of an adverse reaction to progesterone or any component present in the treatment medication; treatment with progesterone within 4 weeks preceding enrollment; or current treatment for a seizure disorder, psychiatric disorder, or chronic hypertension. […] Patients who were currently or previously enrolled in another investigational study within one month prior to randomization were not included.
Patients were also restricted from participation in the trial if the present pregnancy was complicated by a major fetal anomaly or a known chromosome disorder. Patients with a cervical cerclage in place, or those intending to have one placed during the current pregnancy, were excluded from the study, as were those with signs of preterm rupture of membranes, vaginal bleeding, amnionitis, or preterm labor at enrollment.
as §1, with “Women with a history of spontaneous preterm birth in the preceding pregnancy regardless of cervical length or women without a history of preterm birth but with midtrimester cervical shortening in the current pregnancy were screened by the investigator or study coordinator between 16 0/7 and 22 6/7 weeks of gestation. Prior history of spontaneous preterm birth was confirmed by evaluation of the patient's medical records before enrollment. Gestational age was based on the patient's last menstrual period and correlated with an ultrasound biometry algorithm. Each patient had at least one ultrasound examination before randomization to confirm gestational age and rule out major fetal anomalies, and a transvaginal scan to determine the length of the cervix. Subjects” for “Subjects”
(§2) Following randomization, daily treatment was initiated by the patient and continued until 37 0/7 weeks' gestational age, occurrence of preterm rupture of membranes, or delivery. Each patient was evaluated at 2-week intervals. All subjects had another transvaginal ultrasound to determine cervical length at 28 weeks of gestation.

[3] = test system: cervix length of pregnant women; assay: Cervical length by transvaginal ultrasound at baseline and at 28 weeks of gestation; format: in vivo, human; settings: baseline to 28 weeks gestation, all participants, 6-10 weeks of dosing
Experimental: as §2
Prior to beginning the study, baseline measurements of each of the participant's cervical length were taken and are summarized in FIG. 1. During the study, cervical length measurements were made by ultrasound at both baseline and later at 28 weeks after a period of 6-10 weeks of dosing. The mean cervix length of 3.7 cm was the same for both the treatment and placebo groups, and the range of cervical length for all participants was between 1.1 cm and 7.9 cm. At 28 weeks gestation, each participant's cervix was re-measured and the data was compared to the baseline data, and an unexpected and surprising finding was discovered.

[4] = test system: pregnant women at risk of preterm birth; settings: cited from earlier work
[5] = ITT, history of spontaneous preterm birth
[6] = neonates, history of spontaneous preterm birth
[7] = baseline cervical length ≦3.0 cm, total 58
[8] = cervical length <2.8 cm, versus placebo

CC(=O)[C@H]1CC[C@H]2[C@@H]3CCC4=CC(=O)CC[C@]4(C)[C@H]3CC[C@]12C [progesterone]
admissions for preterm labor [1, 5]: 25.6%
head circumference of the neonates [1, 5]: 32.3±3.34 cm
mean birth weight of the neonates [1, 5]: 2680±710 gm
mean gestational age at delivery [1, 5]: 36.6 weeks
rate of preterm birth at <37 0/7 weeks [1, 5]: 41.7%
rate of preterm birth at ≦28 0/7 weeks [1, 5]: 3.2%
rate of preterm birth at ≦35 0/7 weeks [1, 5]: 22.7%
rate of preterm rupture of membranes [1, 5]: 12.0%
rate of stillbirth/intrauterine fetal demise [1, 5]: 1.6%
rate of preterm birth at ≦32 0/7 weeks of gestation (primary outcome) ([1]; ITT, history of spontaneous preterm birth, 8% progesterone vaginal gel 90 mg once daily): 10.0%
1-minute APGAR score, median ([1]; neonates): 8
5-minute APGAR score, median ([1]; neonates): 9
occurrence of grade 3 or 4 intraventricular haemorrhage [1, 6]: 0.3%
occurrence of necrotizing enterocolitis [1, 6]: 1.0%
occurrence of newborn respiratory distress syndrome [1, 6]: 11.0%
rate of admission to a neonatal intensive care unit [1, 6]: 17.5%
number of days from admission to delivery ([1]; patients admitted for treatment of preterm labor): 30 days
mean gestational age at delivery, infant morbidity or mortality, or other maternal or neonatal outcome measure ([1]; versus placebo, in words): no difference
treatment emergent adverse events ([1]; versus placebo, in words): similar
frequency of preterm birth at ≦32 weeks ([1]; versus placebo, in words, history of spontaneous preterm birth): did not decrease
frequency of preterm birth at ≦32 weeks ([1]; versus placebo, in words, history of spontaneous preterm birth, listed as vaginal progesterone gel): does not effectively reduce
time to delivery (Kaplan-Meier curve) ([2]; baseline cervical length greater than 3.2 cm, versus placebo): no statistically significant difference
time to delivery (Kaplan-Meier curve) ([2]; baseline cervical length less than 2.8 cm, versus placebo): probability of not delivering over a longer gestation period
time to delivery (Kaplan-Meier curve) ([2]; baseline cervical length less than or equal to 3.0 cm, versus placebo): probability of not delivering over a longer gestation period
time to delivery (Kaplan-Meier curve) ([2]; baseline cervical length less than or equal to 3.2 cm, versus placebo): probability of not delivering over a longer gestation period
Births >32 Weeks, Number ([2]; baseline cervical length ≦2.8 cm, total 19): 19
Births >32 Weeks, Number [2, 7]: 54
Births ≦32 Weeks, Number [2, 7]: 4
NICU admissions ([2]; cervical length <2.8 cm): 15.8%
fetal/infant deaths ([2]; cervical length <2.8 cm): none
length of NICU stay ([2]; cervical length <2.8 cm): 1.1 days
preterm deliveries at less than or equal to 28 weeks, number ([2]; cervical length <2.8 cm): no preterm deliveries
rate of neonatal respiratory distress syndrome ([2]; cervical length <2.8 cm): 5.3%
total neonatal hospital days ([2]; cervical length <2.8 cm): 5.8 days
rate of preterm birth at ≦32 weeks ([2]; cervical length <2.8 cm at enrollment, 19 on progesterone): 0%
reduction of the number of preterm delivery at less than 35 weeks [2, 8]: about half
reduction of the number of preterm delivery at less than or equal to 37 weeks [2, 8]: about half
delivering ≦32 weeks gestation ([2]; short cervix only population, no history of preterm birth, 4 patients on progesterone): 0
mean decrease in cervix length [3]: 0.44 cm
occurrence of perinatal death ([4]; Dodd et al. meta-analysis of randomized trials, versus placebo): no statistically significant difference
frequency of recurrent preterm birth ([4]; O'Brien et al., high risk women selected by a history of spontaneous preterm birth, prophylactic vaginal gel): does not effectively reduce
